# Measured values published in publication PMC10638516 (Acta Pharmaceutica Sinica. B, 2023).
# Where two headings read alike, the source gives them in different places.
# Experiments:
# hD3R [1] = target: T1, hD3R (Homo sapiens, UniProt P35462); test: biochemical; assay type: binding; conditions: for Ki: Ki hD3, three experiments, means ± SEM
# hD2R [2] = target: T2, hD2R (Homo sapiens, UniProt P14416); test: biochemical; assay type: binding; conditions: for inhibition at 10 µM: read-out: % inhibition at 10 μmol/L hD2
# T2 sequence (P14416 whole entry): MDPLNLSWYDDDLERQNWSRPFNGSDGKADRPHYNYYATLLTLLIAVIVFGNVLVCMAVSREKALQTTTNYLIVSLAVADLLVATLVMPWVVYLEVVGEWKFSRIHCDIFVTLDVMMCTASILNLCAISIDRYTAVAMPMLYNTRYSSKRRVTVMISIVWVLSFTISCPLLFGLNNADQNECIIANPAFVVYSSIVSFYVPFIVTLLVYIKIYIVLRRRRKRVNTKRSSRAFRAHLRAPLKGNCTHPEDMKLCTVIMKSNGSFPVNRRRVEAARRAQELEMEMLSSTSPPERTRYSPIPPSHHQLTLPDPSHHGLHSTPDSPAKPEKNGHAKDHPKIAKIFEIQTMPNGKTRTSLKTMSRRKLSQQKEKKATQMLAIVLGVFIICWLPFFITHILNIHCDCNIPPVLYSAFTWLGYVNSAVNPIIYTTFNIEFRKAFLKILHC
# ICR mice [3] = test: MK-801-induced hyperactivity
# hD2R [4] = target: T2, hD2R; assay type: cell-based
# PC12 cells = test: CCK8 cytotoxicity test, PC12; assay type: cell-based; conditions: 24 h
# ICR mice [5] = test: Spontaneous locomotor test; conditions: compounds 30 mg/kg i.p., RPD 1 mg/kg, 15 min
# hD3R [6] = target: T1, hD3R; test: ERK1/2 phosphorylation; assay type: cell-based; conditions: for effect on ERK1/2 phosphorylation mediated by hD3R, compound alone (agonist mode): CHO-hD3R cells, quinpirole at 20 μmol/L
# mice = test: Catalepsy test in mice; assay type: in vivo, mouse
# hERG channel = hERG channel (Homo sapiens, UniProt Q12809); test: hERG channel automated patch clamp; assay type: cell-based; conditions: hERG inhibition IC50, patch clamp, tested three times
# Chain of hERG channel (Q12809 whole entry): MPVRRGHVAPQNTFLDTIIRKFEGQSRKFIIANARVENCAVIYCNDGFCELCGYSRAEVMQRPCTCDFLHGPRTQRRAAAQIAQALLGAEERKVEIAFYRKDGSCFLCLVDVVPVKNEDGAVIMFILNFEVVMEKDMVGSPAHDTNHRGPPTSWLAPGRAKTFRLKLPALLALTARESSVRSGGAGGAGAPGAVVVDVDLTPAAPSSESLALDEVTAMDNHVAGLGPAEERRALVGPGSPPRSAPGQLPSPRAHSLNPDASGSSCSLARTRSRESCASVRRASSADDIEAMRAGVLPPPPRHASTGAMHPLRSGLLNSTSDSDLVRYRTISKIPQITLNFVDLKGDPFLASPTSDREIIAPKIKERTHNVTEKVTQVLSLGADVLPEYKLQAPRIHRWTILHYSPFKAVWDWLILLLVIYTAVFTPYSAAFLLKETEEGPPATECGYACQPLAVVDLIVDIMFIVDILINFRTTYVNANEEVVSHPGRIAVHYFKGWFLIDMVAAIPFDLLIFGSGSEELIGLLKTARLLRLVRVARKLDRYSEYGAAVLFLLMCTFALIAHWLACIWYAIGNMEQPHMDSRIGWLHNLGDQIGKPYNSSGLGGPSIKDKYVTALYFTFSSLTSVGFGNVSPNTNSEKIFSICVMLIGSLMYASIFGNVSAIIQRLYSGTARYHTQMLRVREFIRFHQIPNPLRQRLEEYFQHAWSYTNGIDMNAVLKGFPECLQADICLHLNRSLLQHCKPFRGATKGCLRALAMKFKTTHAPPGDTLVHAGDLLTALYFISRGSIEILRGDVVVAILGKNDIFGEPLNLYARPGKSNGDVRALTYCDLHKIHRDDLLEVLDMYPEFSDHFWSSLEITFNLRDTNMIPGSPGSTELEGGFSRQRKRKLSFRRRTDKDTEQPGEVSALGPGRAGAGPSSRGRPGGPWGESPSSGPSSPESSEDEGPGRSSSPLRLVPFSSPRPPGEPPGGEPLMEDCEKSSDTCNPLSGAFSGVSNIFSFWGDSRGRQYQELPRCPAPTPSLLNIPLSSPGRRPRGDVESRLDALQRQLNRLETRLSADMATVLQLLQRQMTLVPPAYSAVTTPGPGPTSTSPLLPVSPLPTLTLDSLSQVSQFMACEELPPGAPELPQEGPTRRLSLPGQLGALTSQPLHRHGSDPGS
# ICR mice [7] = test: Apomorphine-induced climbing; assay type: in vivo, mouse; conditions: i.p., apomorphine 1.0 mg/kg s.c.
# dopamine D3 receptor = conditions: read-out: D3R Ki; reference modulators of the pERK assay; cited from earlier work
# [8] = read-out: % inhibition at 10 μmol/L hD3, 10 μmol/L test compound
# T1 sequence (P35462 whole entry): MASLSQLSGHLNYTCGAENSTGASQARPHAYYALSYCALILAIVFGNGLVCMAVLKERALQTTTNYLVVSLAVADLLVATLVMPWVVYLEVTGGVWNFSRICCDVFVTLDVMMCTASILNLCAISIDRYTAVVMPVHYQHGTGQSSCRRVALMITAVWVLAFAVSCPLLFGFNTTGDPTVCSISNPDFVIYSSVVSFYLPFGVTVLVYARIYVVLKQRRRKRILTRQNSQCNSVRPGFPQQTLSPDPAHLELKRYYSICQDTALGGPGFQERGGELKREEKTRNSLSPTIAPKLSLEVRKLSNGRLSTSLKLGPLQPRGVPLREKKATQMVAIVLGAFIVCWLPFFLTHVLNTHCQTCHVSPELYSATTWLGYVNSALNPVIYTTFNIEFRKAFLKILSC
SMILES,Ki (hD3R [1]),inhibition at 10 µM (hD3R [1]; [8]),Ki (hD2R [2]),inhibition at 10 µM (hD2R [2]),further results
CC(C)n1c2ccccc2c2cc(CNCCCn3ccnc3)ccc21 [3c],665 ± 13.5 nM,83.8 ± 10.2%,> 10000 nM,1.7 ± 9.2%,
CCn1c2ccccc2c2cc(CNCCCCn3ccnc3)ccc21 [17a],994 ± 36.6 nM,75.6 ± 3.5%,> 10000 nM,,
CCn1c2ccccc2c2cc(CNCCCn3cnc4ccccc43)ccc21 [17d],1100 ± 115 nM,,> 10000 nM,71.8 ± 3.6%,inhibition at 10 µM (hD3R [1]; read-out: % inhibition at 10 μmol/L hD3): 75 ± 14.5%
CCn1c2ccccc2c2cc(CNCCCn3cnc4cncnc43)ccc21 [17e],,,,10.6 ± 7.4%,
CCn1c2ccccc2c2cc(CNCCCn3cnc4c(Cl)ncnc43)ccc21 [17f],,,,12.8 ± 7.7%,
CCn1c2ccccc2c2cc(CNCCCNC(=O)N(C)C)ccc21 [22a],,42.1 ± 2.2%,,,
CCn1c2ccccc2c2cc(CNCCCNC(=O)c3cc4ccccc4[nH]3)ccc21 [22b],,21.3 ± 8.5%,,8.1 ± 3.9%,
CCn1c2ccccc2c2cc(CNCCCNC(=O)c3nc4ccccc4[nH]3)ccc21 [22c],,32.7 ± 11.4%,,22.4 ± 5.7%,
CCn1c2ccccc2c2cc(CNCCCCNC(=O)c3cc4ccccc4[nH]3)ccc21 [23a],62.6 ± 8 nM,87 ± 2.5%,> 10000 nM,30 ± 14.1%,
CCn1c2ccccc2c2cc(CNCCCCNC(=O)c3nc4ccccc4[nH]3)ccc21 [23b],578 ± 85 nM,86.7 ± 1.9%,> 10000 nM,,
CCn1c2ccccc2c2cc(CNCCCCNC(=O)c3cc4ccccn4n3)ccc21 [23c],45.7 ± 2.2 nM,98.4 ± 2%,> 10000 nM,,
CCn1c2ccccc2c2cc(CNCCCCNC(=O)c3ccc4[nH]cnc4c3)ccc21 [23d],125 ± 17.6 nM,98.5 ± 2.3%,> 10000 nM,2.7 ± 4.3%,
CCn1c2ccccc2c2cc(CNCCCCNC(=O)c3ccc4[nH]c(=O)[nH]c4c3)ccc21 [23e],99.3 ± 31.9 nM,99.2 ± 0.5%,> 10000 nM,1.9 ± 10.7%,
CCn1c2ccccc2c2cc(CNCCCCNC(=O)c3ccc4[nH]c(=O)oc4c3)ccc21 [23f],95.1 ± 8.9 nM,97.6 ± 0.3%,> 10000 nM,5.5 ± 21.5%,
CCn1c2ccccc2c2cc(CNCCCCNC(=O)c3ccc(-c4ccccc4)cc3)ccc21 [23g],206 ± 2.9 nM,102 ± 1.2%,> 10000 nM,,
CCn1c2ccccc2c2cc(CNCCCCNC(=O)c3ccc(-c4ccc(C(C)=O)cc4)cc3)ccc21 [23h],24.2 ± 4.4 nM,105 ± 1.5%,> 10000 nM,5.2 ± 7.6%,
CCn1c2ccccc2c2cc(CNCCCCNC(=O)c3ccc(-c4ccccn4)cc3)ccc21 [23i],21.3 ± 4.3 nM,101 ± 0.8%,> 10000 nM,6.5 ± 2.3%,improvement of D3R binding affinity versus the phenyl group (23g) (hD3R [1]): approximately 10 fold
CCn1c2ccccc2c2cc(CNCCCCNC(=O)c3ccc4[nH]c5ccccc5c4c3)ccc21 [23k],145 ± 11.9 nM,98.1 ± 0.8%,> 10000 nM,10.6 ± 3.3%,
CCn1c2ccccc2c2cc(CNCCCCNC(=O)c3cnc4ccccc4c3)ccc21 [23l],85.7 ± 2.9 nM,100 ± 1.3%,> 10000 nM,9.6 ± 0.1%,
CCn1c2ccccc2c2cc(CNCCCCNC(=O)c3ccnc4ccccc34)ccc21 [23m],,63.1 ± 0.2%,,,
CCN(CCCCNC(=O)c1cc2ccccc2[nH]1)Cc1ccc2c(c1)c1ccccc1n2CC [31a],134 ± 9.6 nM,96.2 ± 0.2%,333 ± 3.6 nM,88.1 ± 1.5%,
CCN(CCCCNC(=O)c1ccc(-c2cccnc2)cc1)Cc1ccc2c(c1)c1ccccc1n2CC [31b],422 ± 18.3 nM,78.5 ± 0.3%,> 10000 nM,36.9 ± 2.1%,
CCCN(CCCCNC(=O)c1cc2ccccc2[nH]1)Cc1ccc2c(c1)c1ccccc1n2CC [31c],448 ± 26.1 nM,98.6 ± 0.6%,301 ± 11.9 nM,89.8 ± 2.9%,

SMILES,Ki (hD3R [1]),inhibition at 10 µM (hD3R [1]; [8]),Ki (hD2R [2]),inhibition at 10 µM (hD2R [2]),further results
CCCN(CCCCNC(=O)c1ccc(-c2cccnc2)cc1)Cc1ccc2c(c1)c1ccccc1n2CC [31d],994 ± 45.3 nM,81.3 ± 0.6%,> 10000 nM,26.8 ± 0.9%,
CCCN(CCCCNC(=O)c1cc2ccccn2n1)Cc1ccc2c(c1)c1ccccc1n2CC [31e],478 ± 29.4 nM,74.8 ± 1.5%,> 10000 nM,18.6 ± 2.5%,
Cn1c2c(c3ccccc31)CN(CCCCNC(=O)c1cc3ccccc3[nH]1)CC2 [36a],10.6 ± 4.5 nM,97.6 ± 2%,> 10000 nM,20.9 ± 3.8%,"inhibition of MK-801-induced hyperactivity at 3 mg/kg (ICR mice [3]; 3 mg/kg i.p.): did not show the inhibition activity; effect on ERK1/2 phosphorylation mediated by hD2R, compound alone (agonist mode) (hD2R [4]): weak partial agonism; cytotoxicity in PC12 cells (PC12 cells): significant cytotoxicity at high concentrations; effect on spontaneous locomotion (ICR mice [5]): no influences; effect on ERK1/2 phosphorylation mediated by hD3R, compound alone (agonist mode) (hD3R [6]): no influence; competitive antagonism of ERK1/2 phosphorylation mediated by D3R (hD3R [6]; in the presence of 20 μmol/L dopamine): dose-dependently inhibit; Catalepsy MED i.p. (minimum effective dose) (mice): ≥480.0 mg/kg; Catalepsy peak effect (percent of cataleptic animals) (mice; i.p.): 0.0%; catalepsy under all tested doses (mice; i.p., 23j up to 240 mg/kg, 36a/b/f up to 480 mg/kg): did not elicit catalepsy; IC50 (hERG channel): 1320 nM"
Cn1c2c(c3ccccc31)CN(CCCCNC(=O)c1cn3nc(Cl)ccc3n1)CC2 [36c],,66.3 ± 9.1%,,21.1 ± 9%,
Cn1c2c(c3ccccc31)CN(CCCCNC(=O)c1cnc3ccccc3c1)CC2 [36d],,42.5 ± 6.8%,,15.6 ± 12.9%,
Cn1c2c(c3ccccc31)CN(CCCCNC(=O)c1ccnc3ccccc13)CC2 [36e],,68.1 ± 1.9%,,-2 ± 17.4%,
Cn1c2c(c3ccccc31)CN(CCCCNC(=O)c1ccc(-c3cccnc3)cc1)CC2 [36g],29 ± 3.3 nM,83.8 ± 12.7%,> 10000 nM,29.2 ± 5.8%,
Cn1c2c(c3ccccc31)CN(CCCCNC(=O)c1ccc3[nH]c4ccccc4c3c1)CC2 [36h],19.6 ± 7.3 nM,95.5 ± 0.7%,,74.4 ± 3.3%,
Cn1c2c(c3ccccc31)CN(CCCCNC(=O)c1ccc3[nH]c(=O)[nH]c3c1)CC2 [36i],3.7 ± 0.6 nM,87.5 ± 6.1%,> 10000 nM,38.9 ± 3.8%,
Cn1c2c(c3ccccc31)CN(CCCCNC(=O)c1ccc3[nH]cnc3c1)CC2 [36j],14.2 ± 0.7 nM,74.4 ± 8.2%,> 10000 nM,27.7 ± 1.4%,
CCn1c2c(c3ccccc31)CN(CCCCNC(=O)c1cc3ccccc3[nH]1)CC2 [36k],15.5 ± 1.8 nM,106 ± 2.2%,> 10000 nM,13.2 ± 7.3%,
Cn1c2c(c3ccccc31)CCN(CCCCNC(=O)c1cc3ccccc3[nH]1)C2 [42a],6.8 ± 0.8 nM,106 ± 1.3%,> 10000 nM,9.1 ± 16.4%,
CCn1c2c(c3ccccc31)CCN(CCCCNC(=O)c1cc3ccccc3[nH]1)C2 [42b],12.9 ± 2.1 nM,106 ± 3.6%,> 10000 nM,17.5 ± 1.5%,
Cn1c2c(c3ccccc31)CCN(CCCCNC(=O)c1ccc3nc[nH]c3c1)C2 [42e],203 nM,81.5 ± 0.6%,,49.7 ± 1.2%,
CCn1c2c(c3ccccc31)CCN(CCCCNC(=O)c1ccc3nc[nH]c3c1)C2 [42f],300 nM,80.6 ± 1.1%,,54.1 ± 0.1%,
Cn1c2c(c3ccccc31)CCN(CCCCNC(=O)c1ccc(-c3cccnc3)cc1)C2 [42g],,69.6 ± 0.8%,,37.8 ± 1%,
CCn1c2c(c3ccccc31)CCN(CCCCNC(=O)c1ccc(-c3cccnc3)cc1)C2 [42h],,31.3 ± 0.6%,,28.9 ± 0.8%,
Cn1c2c(c3ccccc31)CCN(CCCCNC(=O)c1ccc3[nH]c(=O)[nH]c3c1)C2 [42i],112 nM,85.2 ± 0.5%,,37.6 ± 0.2%,
CCn1c2c(c3ccccc31)CCN(CCCCNC(=O)c1ccc3[nH]c(=O)[nH]c3c1)C2 [42j],149 nM,85.9 ± 0.07%,,48.8 ± 0.7%,
"CN(C)C(=O)N[C@H]1CC[C@H](CCN2CCN(c3cccc(Cl)c3Cl)CC2)CC1 [Cariprazine, cariprazine, reference compound]",,,,,"inhibition of MK-801-induced hyperactivity (ICR mice [3]; i.p., MK-801 0.3 mg/kg s.c., 60 min): dose-dependently inhibited; effect on ERK1/2 phosphorylation mediated by hD2R, compound alone (agonist mode) (hD2R [4]): did not exhibit significant effects; inhibition of apomorphine-induced climbing (ICR mice [7]): dose-dependent inhibition"
"CCCN1CCO[C@@H]2c3cc(O)ccc3OC[C@H]21 [PD128907, reference compound]",,,,,"effect on ERK1/2 phosphorylation mediated by hD2R, compound alone (agonist mode) (hD2R [4]): but not CHO-hD2R cells; Ki (dopamine D3 receptor): 1 nM; effect on ERK1/2 phosphorylation mediated by hD3R, compound alone (agonist mode) (hD3R [6]): full ERK1/2 phosphorylation"
c1ccc2c(c1)[nH]c1ccc(CNCCCn3ccnc3)cc12 [compound 8],,54.2 ± 7.7%,,33.2 ± 17.5%,
"NCCc1ccc(O)c(O)c1 [dopamine, reference compound]",,,,,"effect on ERK1/2 phosphorylation mediated by hD2R, compound alone (agonist mode) (hD2R [4]): significantly increased"
